Experimental data: US6552060B1, “Asymmetric disulfides and methods of using same” (Prolx Pharmaceuticals, Inc., priority 1997, dated 2003)

Molecular target: T1, TR/Trx (Homo sapiens, UniProt Q16881)
T1 sequence (Q16881 1-499 isoform Q16881-5): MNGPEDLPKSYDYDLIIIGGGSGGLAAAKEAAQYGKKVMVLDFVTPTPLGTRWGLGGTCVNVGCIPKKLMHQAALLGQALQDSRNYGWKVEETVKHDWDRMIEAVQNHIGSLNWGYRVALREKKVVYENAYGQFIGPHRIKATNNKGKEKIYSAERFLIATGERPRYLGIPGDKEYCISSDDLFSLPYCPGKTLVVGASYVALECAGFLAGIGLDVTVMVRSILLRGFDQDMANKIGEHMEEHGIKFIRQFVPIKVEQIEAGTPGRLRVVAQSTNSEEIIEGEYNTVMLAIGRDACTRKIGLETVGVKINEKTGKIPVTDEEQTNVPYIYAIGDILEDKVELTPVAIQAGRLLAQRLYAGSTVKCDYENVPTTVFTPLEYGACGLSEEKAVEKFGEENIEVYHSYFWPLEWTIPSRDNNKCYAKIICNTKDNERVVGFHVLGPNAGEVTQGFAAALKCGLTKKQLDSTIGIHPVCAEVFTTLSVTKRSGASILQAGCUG
Test: Thioredoxin dependent reduction of insulin by human thioredoxin reductase and NADPH (IC50 TR/Trx, 96 well)
Format: biochemical
Conditions: Table 3; read-out: IC50 TR/Trx (converted)
Text: When referring to the particular system being analyzed IC50 is typically followed by an abbreviation referring to that system (i.e., IC50 TR/Trx for the above described thioredoxin redox system which is comprised of thioredoxin reductase and thioredoxin).
A second plate was used for the assessment of biological activity or as a biological screen. Aliquots of disulfides dissolved in DMSO, were be transferred into 96 well plates. The assay to assess their ability to inhibit thioredoxin reductase measures the thioredoxin dependent reduction of insulin by human thioredoxin reductase and NADPH. The effects of the disulfides on the reduction of Trx by TR were measured spectrophotometrically by following the reduction of NADPH at 339 nm with insulin as the final electron acceptor in a buffered mixture of TR, Trx, NADPH and insulin.

| IC50 [µM] | Structure (SMILES) |
| --- | --- |
| 57.5 | CC(C)CSSc1ncccc1C(=O)O [Compound G-23] |

Same assay, conditions: Table 4

| Disulfide inhibition of TR/Trx (IC50 TR/Trx) [µg/mL] | Structure (SMILES) |
| --- | --- |
| 48 | CCCCSSc1nccc(C)n1 [Compound C-24] |
| 8 | CC(SSc1nc2ccccc2[nH]1)c1ccccc1 (stereo not drawn) [Compound J-8] |
| 11 | Cc1ccc2[nH]c(SSCC(C)C)nc2c1 [Compound G-9] |
| 74 | COc1ccc(CSSC(C)c2ccccc2)cc1 (stereo not drawn) [Compound J-21] |
| 65 | CCCCSSc1ncccc1C(=O)O [Compound C-23] |
| 43 | CC(SSc1nc2cc([N+](=O)[O-])ccc2[nH]1)c1ccccc1 (stereo not drawn) [Compound J-10] |
| >232 | CC(SSCc1ccccc1)c1ccccc1 (stereo not drawn) [Compound J-19] |
| 74 | COc1cccc(CSSC(C)c2ccccc2)c1 (stereo not drawn) [Compound J-20] |
| 56 | CCCCSSc1nnc(S)s1 [Compound C-4] |
| 60 | CCC(C)SSCc1ccc(OC)cc1 (stereo not drawn) [Compound F-21] |
| 201 | CC(C)CSSC(C)c1ccccc1 (stereo not drawn) [Compound G-22] |
| >189 | CCCCSSCc1ccccc1 [Compound C-19] |
| 51 | CCCCSSC1CCCC1 [Compound C-27] |
| 33 | CCCCSSc1ncnc2[nH]cnc12 [Compound C-7] |
| 35 | CCCSSc1nnc(S)s1 [Compound B-4] |
| 5 | Sc1nnc(SSCc2ccccc2)s1 [Compound I-4] |
| 125 | CC(C)CSSc1nccn1C [Compound G-2] |
| 42 | CC(SSc1nnc(S)s1)c1ccccc1 (stereo not drawn) [Compound J-4] |
| 179 | CCCCSSCc1ccc(OC)cc1 [Compound C-21] |
| 52 | CC(C)CSSc1nc2ccccc2o1 [Compound G-12] |
| 35 | CCSSc1ncccc1C(=O)O [Compound A-23] |
| 194 | CCCCSSC(C)c1ccccc1 (stereo not drawn) [Compound C-22] |
| >189 | CC(C)CSSCc1ccccc1 [Compound G-19] |
| 90 | CCSSc1nccc(C)n1 [Compound A-24] |
| 38 | CC(SSc1nc(N)nc2[nH]cnc12)c1ccccc1 (stereo not drawn) [Compound J-6] |
| 42 | CCCCSSc1nc2ccccc2o1 [Compound C-12] |

| Disulfide inhibition of TR/Trx (IC50 TR/Trx) [µg/mL] | Structure (SMILES) |
| --- | --- |
| 35 | O=C(O)c1cccnc1SSCc1ccccc1 [Compound I-23] |
| 11 | Cc1nnc(SSC(C)c2ccccc2)s1 (stereo not drawn) [Compound J-3] |
| 100 | Cn1ccnc1SSCc1ccccc1 [Compound I-2] |
| 9 | Cc1nnc(SSCc2ccccc2)s1 [Compound I-3] |
| >203 | COc1ccc(CSSCC(C)C)cc1 [Compound G-21] |
| 35 | CC(C)SSc1nnc(S)s1 [Compound E-4] |
| 65 | Cc1ccnc(SSCC(C)C)n1 [Compound G-24] |
| 67 | Cc1ccnc(SSC(C)c2ccccc2)n1 (stereo not drawn) [Compound J-24] |
| 43 | Cc1ccc2[nH]c(SSC(C)c3ccccc3)nc2c1 (stereo not drawn) [Compound J-9] |
| 16 | CC(SSc1nc2ccccc2o1)c1ccccc1 (stereo not drawn) [Compound J-12] |
| 12 | CC(SSc1nccn1C)c1ccccc1 (stereo not drawn) [Compound J-2] |
| 33 | CCCCSSc1nc(N)nc2[nH]cnc12 [Compound C-6] |
| 75 | CCSSc1nnc(C)s1 [Compound A-3] |
| 35 | CCSSc1nnc(S)s1 [Compound A-4] |
| 85 | CCCSSc1nnc(C)s1 [Compound B-3] |
| 35 | Cc1ccnc(SSCc2ccccc2)n1 [Compound I-24] |
| 61 | CCCCSSCc1cccc(OC)c1 [Compound C-20] |
| 75 | CCCSSc1nccn1C [Compound B-2] |
| 9 | CCCCSSc1nnc(C)s1 [Compound C-3] |
| 18 | CC(C)CSSc1nc2ccccc2[nH]1 [Compound G-8] |
| 57 | CCCCSSc1nc2ccccc2[nH]1 [Compound C-8] |
| 12 | CCCCSSc1nc2cc(C)ccc2[nH]1 [Compound C-9] |
| 89 | CC(SSc1ncccc1C(=O)O)c1ccccc1 (stereo not drawn) [Compound J-23] |
| 29 | Cc1nnc(SSCC(C)C)s1 [Compound G-3] |
| >76 | CCCCSSc1nc2cc([N+](=O)[O-])ccc2[nH]1 [Compound C-10] |

System: EMT6 mouse mammary tumor cells
Test: Cytotoxicity against EMT6 cells in culture (MTT)
Conditions: read-out: Disulfide Cytotoxicity (IC50), Table 5, 48 h exposure

| Structure (SMILES) | IC50 [µM] |
| --- | --- |
| Cc1ccc2[nH]c(SSC(C)C(C)O)nc2c1 (stereo not drawn) [Compound M-9] | 76 |
| Cc1nnc(SSC(C)C(C)O)s1 (stereo not drawn) [Compound M-3] | ≥ 180 |
| CC(O)C(C)SSc1nccn1C (stereo not drawn) [Compound M-2] | ≥ 180 |
| CC(O)C(C)SSc1ncccc1C(=O)O (stereo not drawn) [Compound M-23] | 96 |
| ClCCCSSc1ccccc1 [Compound H-13] | > 180 |
| CC(C)SSc1nc2ccccc2[nH]1 [Compound E-8] | 66 |
| CC(C)SSc1nc2ccccc2o1 [Compound E-12] | > 180 |
| CCC(C)SSc1nc(N)nc2[nH]cnc12 (stereo not drawn) [Compound F-6] | 23 |
| CCC(C)SSc1ccccc1 (stereo not drawn) [Compound F-13] | > 180 |
| O=[N+]([O-])c1ccc2[nH]c(SSCCCCl)nc2c1 [Compound H-10] | 59 |
| O=C(O)c1cccnc1SSCCCCl [Compound H-23] | 69 |
| CC(O)C(C)SSc1nc(N)nc2[nH]cnc12 (stereo not drawn) [Compound M-6] | 32 |
| Cc1ccc2[nH]c(SSC(C)C)nc2c1 [Compound E-9] | > 180 |
| Cc1nnc(SSCCCCl)s1 [Compound H-3] | > 180 |
| CCC(C)SSC1=NCCS1 (stereo not drawn) [Compound F-25] | 31 |
| CCC(C)SSCC(C)C(=O)N1CCCC1C(=O)O (stereo not drawn) [Compound F-28] | > 180 |
| CC1CCC(C(C)(C)SSCCC(=O)O)C(=O)C1 (stereo not drawn) [Compound N-26] | ≥ 180 |
| Cc1ccnc(SSC(C)C(C)O)n1 (stereo not drawn) [Compound M-24] | ≥ 180 |
| ClCCCSSc1nc2ccccc2[nH]1 [Compound H-8] | 82 |
| CC(C)SSc1nc(N)nc2[nH]cnc12 [Compound E-6] | 42 |
| CC(C)SSC(C)c1ccccc1 (stereo not drawn) [Compound E-22] | > 180 |

| Structure (SMILES) | IC50 [µM] |
| --- | --- |
| ClCCCSSCc1ccccc1 [Compound H-19] | 108 |
| CC(CSSC(C)C(C)O)C(=O)N1CCCC1C(=O)O (stereo not drawn) [Compound M-28] | ≥ 180 |
| CC(O)C(C)SSc1ncc[nH]1 (stereo not drawn) [Compound M-1] | 34 |
| Cc1ccc2[nH]c(SSCCCCl)nc2c1 [Compound H-9] | 66 |
| Cn1ccnc1SSCCCCl [Compound H-2] | > 180 |
| COc1cccc(CSSC(C)C)c1 [Compound E-20] | > 180 |
| CC(C)SSc1nc2cc([N+](=O)[O-])ccc2[nH]1 [Compound E-10] | 29 |
| CC(C)SSc1ncnc2[nH]cnc12 [Compound E-7] | > 180 |
| CC(C)SSc1ccccc1 [Compound E-13] | > 180 |
| O=C(O)CCSSc1nc2ccccc2[nH]1 [Compound N-8] | ≥ 180 |
| ClCCCSSc1ncc[nH]1 [Compound H-1] | > 180 |
| CC(C)SSCC(C)C(=O)N1CCCC1C(=O)O (stereo not drawn) [Compound E-28] | > 180 |
| CC(O)C(C)SSc1nc2ccccc2[nH]1 (stereo not drawn) [Compound M-8] | ≥ 180 |
| O=C(O)CCSSc1ncccc1C(=O)O [Compound N-23] | 92 |
| CC(O)C(C)SSc1nc2ccccc2o1 (stereo not drawn) [Compound M-12] | 29 |
| CC(SSC(C)C(C)O)c1ccccc1 (stereo not drawn) [Compound M-22] | ≥ 180 |
| COc1cccc(CSSCCCCl)c1 [Compound H-20] | 91 |
| CC(O)C(C)SSc1ncnc2[nH]cnc12 (stereo not drawn) [Compound M-7] | ≥ 180 |
| CC(O)C(C)SSc1nc2cc([N+](=O)[O-])ccc2[nH]1 (stereo not drawn) [Compound M-10] | 34 |
| CC(O)C(C)SSCc1ccccc1 (stereo not drawn) [Compound M-19] | 91 |
